# In patent US5451397A, “Bile acid sequestrant” (priority 1992, dated 1995):
# System: Chinese hamster ovary (CHO) cell cultures
# Type: cell-based
# Method: A suspension of particles of the sequestrant in deionized water was prepared. The suspension was serially diluted into serumless culture medium. The most concentrated suspension tested was 1000 micrograms sequestrant per milliliter suspension (μg/ml). Exponentially growing Chinese hamster ovary (CHO) cell cultures were treated with the sequestrant dilutions for three hours. The cultures were gently rocked on a rocker platform during treatment in an attempt to maintain a uniform suspension over the cells for the entire treatment period. Negative controls i.e., CHO cell cultures treated with serumless culture medium, and solvent controls, i.e., CHO cell cultures treated with 1% deionized water in serumless culture medium, were included. Treatment was terminated by washing the cultures twice with Dulbecco's phosphate buffered saline and cells were allowed to recover in McCoy's 5A medium containing 10% fetal bovine serum for 0, 5 or 21 hours, i.e., 3, 8 or 24 hours from the beginning of treatment. […] The harvested cells were counted by Coulter counter to determine relative reductions in cell numbers. At selected doses, Trypan blue exclusion counts were conducted using a hemacytometer to determine cell viability to control for the possibility that some dead cells may have been counted with the Coulter counter. […]
substance,measurement,value
poly(dimethylaminopropylmethacrylamide) [Comparative Example C1],ED50 (dosage effective to kill 50% of the cells),10.0 µg/mL
